Measured values: patent publication US20100279942A1, “METHODS FOR TREATING MOTOR NEURON DISEASE” (priority 2004, published 2010)

How the values were obtained:
[1] = tested on: F11 cells transformed with SOD1 mutant (A4T-SOD1, G85R-SOD1, G93R-SOD1) genes; test: Neuronal cell death test, Trypan blue exclusion assay, F11 cells transformed with SOD1 mutant genes; type: cell-based, rat/mouse hybrid cell; settings: for effect of kinase inhibitor on neuroprotective effect of ADNF: 100 nM ADNF, 10 nM wortmannin, 100 μM genistein, 50 μM PD98059, 20 μM SB203580, 1 μM AG490, 5 μM KN93, 10 μM HA1004, 72 hours
Description: F11 cell, the hybrid cell of rat embryonic day 13 (E13) primary cultured neuronal cell with mouse neuroblastoma NTG18 cell, was cultured in Ham's F-12 medium (Life Technologies, Gaithersburg, Md.) containing 18% FBS (Hyclone, Logan, Utah) and antibiotics as previously reported (Platika D, et al., 1985, Proc Natl Acad Sci USA 82: 3499-3503; Yamatsuji T, et al., 1996, Science 272: 1349-1352; Huang P, et al., 2000, Mol Hum Reprod 6: 1069-1078; and Niikura T, et al., 2001, J Neuroscience, 21: 1902-1910).
The F11 cells (7×10^4 cells/well, 6-well plate, 12- to 16-hour culture in Ham's F-12 (18% PBS) medium) were transformed with wild-type or SOD1 mutant (A4T, G85R, and G93R) genes by lipofection (0.5 μg of each SOD1 gene; 1 μl of LipofectAMINE; 2 μl of PLUS Reagent) under serum-free conditions for 3 hours and cultured for 2 hours in Ham's F-12 (18% PBS) medium. The medium was replaced by Ham's F-12 (10% PBS) in the presence or absence of ADNF. After 72 hours of the transformation, cell mortality was measured by Trypan blue exclusion assay as previously reported (Hashimoto Y, et al., 2001, J Neurosci 21: 9235-9245; and Hashimoto Y, et al, 2001, Proc Natl Acad Sci USA 98: 6336-6341). […]
Intracellular signaling by ADNF was examined. F11 cells were transformed with pEF-BOS or SOD1 mutant (A4T-SOD1, G85R-SOD1, or G93R-SOD1) cDNA and reacted with 10 nM wortmannin (PI3 kinase inhibitor), 100 μM genistein (tyrosine kinase inhibitor), 50 μM PD98059 (MEK inhibitor), 20 μM SB203580 (p38 MAPK inhibitor), 1 μM AG490 (JAK kinase inhibitor), 5 μM KN93 (calcium/calmodulin-dependent kinase inhibitor), or 10 μM HA1004 (protein kinase A inhibitor) in the presence or absence of 100 nM ADNF. After 72 hours of the transformation, cell mortality was measured by Trypan blue exclusion assay.
The effect of KN93 on the neuroprotective action of ADNF was examined. […] After 72 hours of the transformation, cell mortality was measured by Trypan blue exclusion assay. […]

SOD1 proteins = test: Immunoblot analysis of SOD1 protein expression in transformed cells; type: cell-based, mouse and rat/mouse hybrid; settings: KN93 or KN92 treatment; F11 cells
Description: Immunoblot analysis was conducted according to the previous report (Hashimoto Y, et al., supra, p. 6336-6341). To examine the protein expression of wild-type or SOD1 mutant genes, lysates from the cells transfected with each SOD1 gene were subjected to SDS-PAGE (20 μg/lane). After electrical blotting to a PVDF membrane, the membrane was blocked by a typical method and reacted with an anti-SOD1 antibody and then with a 1:5000-diluted horseradish peroxidase-conjugated anti-mouse IgG antibody (Bio-Rad Lab. Hercules, Calif., USA). The antibody-reactive bands were detected by ECL (Amersham Pharmacia Biotech, Uppsala, Sweden).

[2] = tested on: neuronal cell death caused by amyloid β; settings: cited from earlier work
[3] = tested on: F11 cells transformed with SOD1 mutant (A4T-SOD1, G85R-SOD1, G93R-SOD1) genes; test: Neuronal cell death test, Trypan blue exclusion assay, F11 cells transformed with SOD1 mutant genes; type: cell-based, rat/mouse hybrid cell; settings: 10 pM ADNF8, 72 hours
[4] = tested on: neuronal cell death induced by SOD1 mutant genes; settings: Hashimoto et al.; cited from earlier work

## N#C/C(=C/c1ccc(O)c(O)c1)C(=O)NCc1ccccc1 [AG490]
[1]
  effect of kinase inhibitor on neuroprotective effect of ADNF: not affected

## NC(N)=NCCNS(=O)(=O)c1cccc2cnccc12 [HA1004]
[1]
  effect of kinase inhibitor on neuroprotective effect of ADNF: not affected

## COc1ccc(S(=O)(=O)Nc2ccccc2CN(C)C/C=C/c2ccc(Cl)cc2)cc1 [KN92]
[1]; 5 μM KN92, 100 fM ADNF
  influence on ADNF activity: did not influence ADNF activity
SOD1 proteins
  protein expression of SOD1 mutant detected by immunoblot: not affected

## COc1ccc(S(=O)(=O)N(CCO)c2ccccc2CN(C)C/C=C/c2ccc(Cl)cc2)cc1 [KN93]
[1]; 50 nM KN93, 100 fM ADNF
  inhibition of neuroprotective action of ADNF: partially inhibited
[1]
  effect of kinase inhibitor on neuroprotective effect of ADNF: inhibited
[1]; 1 μM KN93, 100 fM ADNF
  inhibition of neuroprotective action of ADNF: almost completely inhibited
[1]; KN93 at any of the concentrations (10 nM to 5 μM)
  influence on cell mortality at the control level: no influence
SOD1 proteins
  protein expression of SOD1 mutant detected by immunoblot: not affected

## COc1cccc(-c2cc(=O)c3ccccc3o2)c1N [PD98059]
[1]
  effect of kinase inhibitor on neuroprotective effect of ADNF: not affected

## C[S+]([O-])c1ccc(-c2nc(-c3ccncc3)c(-c3ccc(F)cc3)[nH]2)cc1 (stereo not shown) [SB203580]
[1]
  effect of kinase inhibitor on neuroprotective effect of ADNF: not affected

## O=c1c(-c2ccc(O)cc2)coc2cc(O)cc(O)c12 [genistein]
[1]
  effect of kinase inhibitor on neuroprotective effect of ADNF: inhibited

## ALLRSIPA [ADNF8, ADNF which lost one N-terminal amino acid residue]
[2]; Brenneman et al. 1998
  effect against neuronal cell death caused by amyloid β or TTX: totally ineffective
[1]; inhibition of neuronal cell death caused by SOD1 mutant genes
  effectiveness relative to ADNF (fold less): 100 fold
[3]
  inhibition of cell death caused by G93R-SOD1: completely inhibited cell death

## IPALDSLKPANEDQKIGIEI [IPAL peptide]
[2]; Zamostiano et al. 1999
  effect on protective effect of ADNF on cell death induced by amyloid β: inhibit the protective effect of ADNF
[1]; 10 μM IPAL peptide
  influence on cell death caused by SOD1 mutant genes: did not influence the cell death caused by the SOD1 mutant genes
[1]; 10 μM IPAL peptide itself, pEF-BOS
  influence on cell death at the control level: did not influence the cell death at the control level
[1]; 10 μM IPAL peptide, 100 fM ADNF, 72 hours
  effect on inhibitory activity of ADNF against cell death caused by SOD1 mutant genes: did not inhibit the inhibitory activity of ADNF

## S14G Humanin (MAPRGFSCLLLLTGEIDLPVKRRA; Humanin; UniProt Q8IVG9 1-24, looked up, variant S14G) [HNG, comparison peptide reported to prevent Alzheimer's disease-associated neuronal cell death]
[2]; Hashimoto et al.
  neuronal cell death caused by some Alzheimer's disease-associated disorders: prevent neuronal cell death
[1]; 10 nM HNG, A4T-, G85R-, G93R-SOD1, 72 hours
  cell mortality induced by SOD1 mutant genes: could not reduce the cell death induced by the SOD1 mutant genes
[4]
  neuronal cell death induced by SOD1 mutant genes: fail to prevent neuronal cell death
